From patent US20050090559A1, “Heterocyclically-substituted pentanol derivatives, process for their production and their use as anti-inflammatory agents” (priority 2003, published 2005) come the findings set out here.

The structures appear in SMILES notation.

For the assay, the target named is T1, glucocorticoid receptor (GR) (Homo sapiens, UniProt P04150).
T1 construct: made in house; host or cells: Sf9 cells infected with recombinant baculovirus (cytosol preparation)
T1 sequence (P04150 1-777): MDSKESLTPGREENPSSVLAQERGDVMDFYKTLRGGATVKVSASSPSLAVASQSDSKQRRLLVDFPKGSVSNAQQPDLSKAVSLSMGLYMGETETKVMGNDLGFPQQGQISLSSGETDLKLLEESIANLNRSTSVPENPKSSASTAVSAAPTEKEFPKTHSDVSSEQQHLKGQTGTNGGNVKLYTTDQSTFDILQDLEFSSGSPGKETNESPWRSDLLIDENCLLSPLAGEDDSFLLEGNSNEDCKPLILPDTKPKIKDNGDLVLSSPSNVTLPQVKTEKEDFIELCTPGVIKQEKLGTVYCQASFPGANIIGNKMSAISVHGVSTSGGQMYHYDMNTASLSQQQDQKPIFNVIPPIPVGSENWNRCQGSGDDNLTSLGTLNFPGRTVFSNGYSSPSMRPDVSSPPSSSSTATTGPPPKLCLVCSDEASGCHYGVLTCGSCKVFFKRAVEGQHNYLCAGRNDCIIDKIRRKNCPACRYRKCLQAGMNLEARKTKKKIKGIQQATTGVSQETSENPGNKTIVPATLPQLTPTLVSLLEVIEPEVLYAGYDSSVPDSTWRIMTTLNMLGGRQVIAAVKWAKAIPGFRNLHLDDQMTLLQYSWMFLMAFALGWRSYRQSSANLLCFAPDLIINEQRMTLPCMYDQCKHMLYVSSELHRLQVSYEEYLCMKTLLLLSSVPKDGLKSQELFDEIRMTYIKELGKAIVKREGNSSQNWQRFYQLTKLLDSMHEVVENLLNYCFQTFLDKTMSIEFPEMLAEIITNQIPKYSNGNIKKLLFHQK
The assay is described as follows: Binding to recombinantly produced glucocorticoid receptor, cytosol preparations of Sf9 cells, vs [3H]-dexamethasone. The settings on record: recombinant GR. The text has this:
The binding of the substances to the glucocorticoid receptor (GR) and other steroid hormone receptors (mineral corticoid receptor (MR), progesterone receptor (PR) and androgen receptor (AR)) is examined with the aid of recombinantly produced receptors. Cytosol preparations of Sf9 cells, which had been infected with recombinant baculoviruses, which code for the GR, are used for the binding studies. In comparison to reference substance [^3H]-dexamethasone, the substances show a high to very high affinity to GR.
Moreover, the compounds of formula (I) substituted by quinazolines, quinoxalines, cinnolines, indazoles, phthalazines, naphthyridines, benzothiazoles, dihydroindolones, dihydroisoindolones, benzimidazoles and indoles that are described here show a high selectivity for the glucocorticoid receptor.

One may read the IC50 as the point on the concentration scale where inhibition reaches its midpoint. Turning to `COc1cc(Cl)ccc1C(C)(C)CC(O)(CNc1ccnc2nc(C)ccc12)C(F)(F)F` (centres unmarked) [Example 52, 4-(4-Chloro-2-methoxyphenyl)-4-methyl-1-(2-methyl-1,8-naphthyridin-5-ylamino)-2-(trifluoromethyl)pentan-2-ol], the IC50 stood at 10 nM. In the case of `COc1ccc(F)cc1C(C)(C)CC(O)(CNc1cccc2nc(C)ncc12)C(F)(F)F` (centres unmarked) [Example 2, 4-(5-Fluoro-2-methoxyphenyl)-4-methyl-1-(2-methylquinazolin-5-ylamino)-2-(trifluoromethyl)-pentan-2-ol] it was 1.8 nM.
